ChEMBL document CHEMBL1201862, “PubChem BioAssay data set” (2004)
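Results reflect a 48-hour exposure of cells in 96-well plates to compound at five concentrations. GI50 marks 50% less growth.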 The source made the active and inactive calls. Rule as the data show it: active = GI50 up to about 1.1 µM and inactive = higher.

Experiments:
Assay in all cases: NCI-60 cell line screen, 48 h
DLD-1 = system: DLD-1
KM-20L2 = system: KM-20L2
DMS-273 = system: DMS-273
XF498 = system: XF498
LXFL 529 = system: LXFL 529
SNB-78 = system: SNB-78
DMS-114 = system: DMS-114
HOP-18 = system: HOP-18
RXF 631 = system: RXF 631

| SMILES | GI50 (DLD-1) | GI50 (KM-20L2) | GI50 (DMS-273) | GI50 (XF498) | GI50 (LXFL 529) | GI50 (SNB-78) | GI50 (DMS-114) | GI50 (HOP-18) | GI50 (RXF 631) |
| --- | --- | --- | --- | --- | --- | --- | --- | --- | --- |
| O=C1CC(c2c[nH]c3ccccc23)C(=O)N1c1ccccc1 (stereo unspecified) | > 100 µM (inactive) | > 100 µM (inactive) | > 100 µM (inactive) | > 100 µM (inactive) | > 100 µM (inactive) | > 100 µM (inactive) |  |  |  |
| Cc1cc(NC(=O)NC(=O)c2ccccc2NC(=O)CN(C)C)ccc1Oc1ncc(Br)cn1 | 8.07 µM (inactive) | 4.56 µM (inactive) | 3.74 µM (inactive) | 19.7 µM (inactive) | 13.1 µM (inactive) | 19.2 µM (inactive) | 3.07 µM (inactive) |  |  |
| CCOC(=O)CCCO | > 100 µM (inactive) | > 100 µM (inactive) |  | > 100 µM (inactive) | > 100 µM (inactive) |  |  | > 100 µM (inactive) | > 100 µM (inactive) |
| O=C(c1nc2ccccc2nc1O)C(O)c1ccco1 (stereo unspecified) |  | 56.5 µM (inactive) | > 100 µM (inactive) | > 100 µM (inactive) | 86.3 µM (inactive) | > 100 µM (inactive) | 52.6 µM (inactive) |  |  |
| N#CCCN(c1ccc(-c2nnc(NC(=O)CNNC(=O)CC(=O)Nc3ccccc3)s2)cc1)S(=O)(=O)c1ccccc1 | > 100 µM (inactive) |  | > 100 µM (inactive) | > 100 µM (inactive) | 89.9 µM (inactive) |  | 55.8 µM (inactive) | > 100 µM (inactive) | > 100 µM (inactive) |
| Cn1cnc([N+](=O)[O-])c1Sc1nnc(-c2ccc(Cl)cc2)n1C | 11 µM (inactive) |  | 16.4 µM (inactive) |  | 10.4 µM (inactive) | 13.2 µM (inactive) | 15.8 µM (inactive) | 5.25 µM (inactive) | 15.6 µM (inactive) |
| O=C(NO)C(=O)Nc1cc(Cl)ccc1Cl | > 100 µM (inactive) | > 100 µM (inactive) | 42.7 µM (inactive) |  | > 100 µM (inactive) | > 100 µM (inactive) | 69.3 µM (inactive) | > 100 µM (inactive) | 62.7 µM (inactive) |
| CC1=CCP(C(F)(F)F)P(C(F)(F)F)C1 (stereo unspecified) | > 100 µM (inactive) | > 100 µM (inactive) |  |  | > 100 µM (inactive) | > 100 µM (inactive) | > 100 µM (inactive) | > 100 µM (inactive) | > 100 µM (inactive) |
| COc1ccc2c3c([nH]c2c1CC=C(C)C)C(=O)C=C(C)C3=O | > 25 µM (inactive) | > 25 µM (inactive) | > 25 µM (inactive) | > 25 µM (inactive) | 15.8 µM (inactive) |  | 18.3 µM (inactive) | 12.1 µM (inactive) |  |
| O=[N+]([O-])c1ccc(C(O)/C(=N/O)c2nc3ccc(Cl)cc3nc2O)cc1 (stereo unspecified) | > 100 µM (inactive) | > 100 µM (inactive) | > 100 µM (inactive) | > 100 µM (inactive) | > 100 µM (inactive) |  | > 100 µM (inactive) |  |  |
| COc1cc([C@@H]2c3cc4c(cc3[C@@H](OC(=O)c3ccc(N)cc3)C3COC(=O)[C@@H]32)OCO4)cc(OC)c1O (stereo partly specified) | 5.6 µM (inactive) | 1.88 µM (inactive) | 3.43 µM (inactive) |  | 14.8 µM (inactive) | 15.2 µM (inactive) |  | > 95.1 µM (inactive) | 9.1 µM (inactive) |
| Cc1ccc(NC(=O)CCC(=O)C2Cc3ccccc3C2=O)cc1C (stereo unspecified) | > 100 µM (inactive) | > 100 µM (inactive) | > 100 µM (inactive) | > 100 µM (inactive) | > 100 µM (inactive) | > 100 µM (inactive) | > 100 µM (inactive) | > 100 µM (inactive) |  |
| COc1ccc(CN2C(=O)C(Cc3cc(OC)c(OC)c(C)c3OC)N(C(=O)OC(C)C)C(=O)/C2=C/c2cc(OC)c(OC)c(C)c2OC)cc1 (stereo unspecified) | > 100 µM (inactive) | > 100 µM (inactive) | 23.6 µM (inactive) |  | 12.7 µM (inactive) |  | 24.9 µM (inactive) | 16.3 µM (inactive) | > 100 µM (inactive) |
| C=CCN1C2Cc3cc(OC)c(OC)cc3C1Cc1cc(OC)c(OC)cc12 | > 100 µM (inactive) | > 100 µM (inactive) |  | > 100 µM (inactive) | > 100 µM (inactive) | > 100 µM (inactive) |  |  |  |
| Cc1nc(-n2nc(-c3ccccc3)cc2-c2ccccc2)sc1C(=O)/C=C/c1ccc(/C=C/C(=O)c2sc(-n3nc(-c4ccccc4)cc3-c3ccccc3)nc2C)cc1 | 20.8 µM (inactive) | 19.1 µM (inactive) | 21.1 µM (inactive) | 21.8 µM (inactive) | 27.7 µM (inactive) | 33.4 µM (inactive) | 36.9 µM (inactive) |  | 28.1 µM (inactive) |
| O=c1c(Cl)c(Cl)cnn1CCCl | 1.47 µM (inactive) | 13 µM (inactive) | 5.27 µM (inactive) | 3 µM (inactive) | 1.62 µM (inactive) | 11.8 µM (inactive) | 4.3 µM (inactive) |  |  |
| O=C1NC2(O)c3ccccc3C(=O)C2(O)N1c1ccccc1 (stereo unspecified) | > 100 µM (inactive) | > 100 µM (inactive) |  | > 100 µM (inactive) | > 100 µM (inactive) |  | > 100 µM (inactive) | > 100 µM (inactive) | > 100 µM (inactive) |
| COc1ccc(COC2CC(OC)OC(C)C2OC(=O)c2ccccc2)cc1 (stereo unspecified) | 18.7 µM (inactive) | 14.7 µM (inactive) | 39.4 µM (inactive) | 21.7 µM (inactive) | 26.5 µM (inactive) | 41.7 µM (inactive) | 26 µM (inactive) | > 100 µM (inactive) | 30.7 µM (inactive) |
| C[C@@H]1O[C@@H](O[C@H]2CC[C@]3(C=O)[C@H]4CC[C@]5(C)[C@@H](c6ccc(=O)oc6)CC[C@]5(O)[C@@H]4CC[C@]3(O)C2)[C@H](O)[C@H](O)[C@H]1O[C@@H]1O[C@H](CO)[C@@H](O)[C@H](O)[C@H]1O [HELLEBRIN] |  | 0.0187 µM (active) | 0.00775 µM (active) | 0.0375 µM (active) |  | 0.0375 µM (active) | 0.00208 µM (active) | 0.00518 µM (active) |  |
